“Also recorded” adds a separate entry of the source.
Legend:
[1] = system: bleeding time; assay: Bleeding time test, forearm puncture with #11 scalpel blade (Experiment 4); assay type: in vivo, human
Description: The bleeding time test measures the function of a number of coagulation pathway parameters, including platelet function, extrinsic coagulation pathway and intrinsic coagulation pathway. Here, in order to better understand the various coagulation pathways that might be impacted by gallium nitrate, a bleeding function experiment was done to see if the gallium nitrate effect worked for patients (e.g. Warfarin or Coumadin™ patients) with a suppressed extrinsic coagulation pathway.
In this experiment, a first subject (Subject 1) was treated with Coumadin™ (Warfarin) to achieve a therapeutic dose with an International Normalized Ratio (INR) of 2.5.
Subject 1: To induce bleeding, the first INR 2.5 subject's mid forearm was punctured with a #11 scalpel blade to a depth of 4 mm. This produced prompt flow of blood in the form of a steady slow blood stream down the subject's forearm. This blood flow was gently wiped with gauze every 30 seconds without applying pressure. Under these control (no gallium nitrate) conditions, the bleeding stopped at 122 seconds.
To investigate the effect of gallium nitrate, a second puncture was then made to the arm of the INR 2.5 subject following the same methods as for the first puncture. However in this portion of the experiment, at 5 seconds after puncture, once blood flow had commenced, a gallium nitrate (14%) solution was applied using a soaked cotton-ball. In contrast to the previous no-gallium control, in this gallium nitrate application experiment, blood flow ceased after only 35 seconds. A small pool of blood stayed about incision site. Thus for an INR 2.5 patient, gallium nitrate reduced bleeding time from a control of 122 seconds to a value of only 35 seconds, which is a very substantial decrease.
Subject 2: A mid forearm puncture was made following the same methods as described above. This first puncture was gently wiped with gauze every 30 seconds without applying pressure. In this no gallium nitrate control condition, bleeding stopped at 268 seconds
To investigate the effect of gallium nitrate, a second puncture was then made following the same methods as for the first puncture. At 5 seconds after puncture, once blood flow had commenced, a gallium nitrate (14%) solution was applied using a soaked cotton-ball. By 77 seconds the flow had ceased and a visible clot had started to form.

[2] = system: open wound; assay: Topical application of aqueous gallium nitrate to accidental open bleeding wounds (Experiments 1-3); assay type: in vivo, human
Description: Unless otherwise specified, all experiments below used an aqueous solution of unbuffered Ga(NO3)3, dissolved in water in the 5% to 15% weight/volume concentration range, specifically as stated. Note that none of these formulations contained citrate.
A first human subject sustained an accidental 1-inch long gash to the index finger, deep enough to extend below the epidermis, but stopping short of the bone. The wound bled profusely and hurt intensely. Subject immediately inserted the finger into a solution of concentrated (non-medical) 14% aqueous gallium nitrate. […] Subject kept the finger in the 14% aqueous gallium nitrate solution for 10 minutes. […] A regular bandage was then applied. Although a wound of this depth would normally require stitches, by the time further medical treatment was sought, stitches were no longer deemed necessary.
A different (second) human subject sustained an accidental 1-inch wide gash to the chin which again penetrated the epidermis, stopped short of the bone, and which bled very profusely. The wound was treated by liberally applying the same type of 14% gallium nitrate solution used in Experiment 1.
A third human subject sustained an accidental 2-inch wide and quite deep gash (penetrating the epidermis, stopping short of the bone) to the top of the forehead, accompanied by profuse bleeding. A less concentrated (7% aqueous gallium nitrate) topical solution was then applied.

In the case of `O=[N+]([O-])[O-].O=[N+]([O-])[O-].O=[N+]([O-])[O-].[Ga+3]` [gallium nitrate], the visible clot formation ([1]; Coumadin treated subject, 14% solution) is reported as “did not form a visible clot”, the “bleeding time (blood flow ceased)” value ([1]; Subject 1, Coumadin (Warfarin) treated, INR 2.5, 14% solution applied with soaked cotton-ball 5 seconds after puncture) is reported as 35 s and the “bleeding time (flow ceased)” value ([1]; Subject 2, non-Coumadin treated, 14% solution applied with soaked cotton-ball 5 seconds after puncture) is reported as 77 s. The “reduction of bleeding time compared to no-gallium nitrate control” value ([1]; both the Warfarin/Coumadin treated and the non-treated subject, 14% solution) was “approximately 75%”, the visible clot formation ([1]; non-Coumadin treated subject, 14% solution) was “formed a very visible brown clot” and the wound healing ([2]; Experiment 1: 14% aqueous gallium nitrate, finger gash, regular bandage afterwards) was “healed completely within a matter of days”. For the same compound, the pain ([2]; Experiment 1: 14% aqueous gallium nitrate, finger kept in solution for 10 minutes) was “near immediate reduction in pain; also recorded: no pain was felt”, the bleeding stopped ([2]; Experiment 1: first human subject, 1-inch gash to index finger, finger inserted into 14% aqueous gallium nitrate, no citrate) was “stopped within a few seconds” and the resulting clot ([2]; Experiment 2: 14% gallium nitrate solution, chin gash, examined by treating physician shortly thereafter) was “unusual strength”. For the same compound, the bleeding stopped ([2]; Experiment 2: second human subject, 1-inch gash to chin, 14% gallium nitrate solution liberally applied) was “rapidly stopped bleeding”, the bleeding stopped ([2]; Experiment 3: third human subject, 2-inch deep gash to forehead, 7% aqueous gallium nitrate topical) was “stopped bleeding unusually quickly” and the clot formation ([2]; summary of the accidental event: aqueous 14% gallium nitrate on a large open wound immediately after wound formation) was “unexpectedly rapid clot formation”.

Reference: patent US8652509B2, “Method of wound hemostasis using liquid gallium nitrate” (priority 2009, dated 2014)
